Source: patent US12636376B2, “Methods and compositions for use of growth factor antibodies in combination with non-tyrosine targeting kinase inhibitors” (In3Bio Ltd., priority 2019, dated 2026)

What was measured:
[1] = cited from earlier work
[2] = system: pEGFR, pAkt, pErk½ signaling in H508 cells; test: Western blot of pEGFR, pAkt, pErk½ signaling, 2 hour incubation, H508 cells; assay type: cell-based; details: 2 hour incubation with EGF, FIG. 20
[3] = patients taking Alpelisib; cited from earlier work

## COC(=O)N[C@@H](C)CNc1nccc(-c2cn(C(C)C)nc2-c2cc(Cl)cc(NS(C)(=O)=O)c2F)n1 [Encorafenib, methyl N-[(2S)-1-[[4-[3-[5-chloro-2-fluoro-3-(methanesulfonamido)phenyl]-1-propan-2-ylpyrazol-4-yl]pyrimidin-2-yl]amino]propan-2-yl]carbamate]
[1]; after oral administration
  median Tmax: 2 h
[1]; oral administration
  dose absorbed: At least 86%

## CC(=O)Nc1cccc(-n2c(=O)n(C3CC3)c(=O)c3c(Nc4ccc(I)cc4F)n(C)c(=O)c(C)c32)c1 [Trametinib, N-[3-[3-cyclopropyl-5-(2-fluoro-4-iodoanilino)-6,8-dimethyl-2,4,7-trioxopyrido[4,3-d]pyrimidin-1-yl]phenyl]acetamide]
[1]; human, in vivo
  Elimination half-life: 93.6 to 115 h
[1]; oral administration, patients with BRAF V600 mutation-positive melanoma
  peak plasma concentration occurred post-dose (Tmax): 1.5 h
[1]; single 2 mg oral dose
  bioavailability: 72%

## Cc1nc(NC(=O)N2CCC[C@H]2C(N)=O)sc1-c1ccnc(C(C)(C)C(F)(F)F)c1 [Alpelisib, (2S)-1-N-[4-methyl-5-[2-(1,1,1-trifluoro-2-methylpropan-2-yl)pyridin-4-yl]-1,3-thiazol-2-yl]pyrrolidine-1,2-dicarboxamide]
[2]
  pAkt: inhibit pAkt
  pEGFR or pErk½ signaling: do not affect
[3]
  dose dependent benefit from treatment: advantage of 300 mg once daily over 150 mg twice daily: 22%
  dose dependent benefit from treatment: advantage of a 200 mg daily dose over a 100 mg dose: 51%
